This passage reports IC50 results from PubChem BioAssay AID651797 (The Scripps Research Institute Molecular Screening Center, 2012).

Calls of active or inactive are those of the source. No rule for the calls is given here.

The target in this experiment is Nuclear receptor coactivator 3 (Homo sapiens) (UniProt Q9Y6Q9). The experiment in a line: NCOA3-driven reporter transcription inhibition – cell-based, luminescence reporter, selectivity assay for SRC1 inhibitor project, late-stage follow-up (AID 651797). The note with it: human cells, SRC3 luminescence reporter, dose response.
Chain of Nuclear receptor coactivator 3 (Homo sapiens) (Q9Y6Q9 whole entry, looked up): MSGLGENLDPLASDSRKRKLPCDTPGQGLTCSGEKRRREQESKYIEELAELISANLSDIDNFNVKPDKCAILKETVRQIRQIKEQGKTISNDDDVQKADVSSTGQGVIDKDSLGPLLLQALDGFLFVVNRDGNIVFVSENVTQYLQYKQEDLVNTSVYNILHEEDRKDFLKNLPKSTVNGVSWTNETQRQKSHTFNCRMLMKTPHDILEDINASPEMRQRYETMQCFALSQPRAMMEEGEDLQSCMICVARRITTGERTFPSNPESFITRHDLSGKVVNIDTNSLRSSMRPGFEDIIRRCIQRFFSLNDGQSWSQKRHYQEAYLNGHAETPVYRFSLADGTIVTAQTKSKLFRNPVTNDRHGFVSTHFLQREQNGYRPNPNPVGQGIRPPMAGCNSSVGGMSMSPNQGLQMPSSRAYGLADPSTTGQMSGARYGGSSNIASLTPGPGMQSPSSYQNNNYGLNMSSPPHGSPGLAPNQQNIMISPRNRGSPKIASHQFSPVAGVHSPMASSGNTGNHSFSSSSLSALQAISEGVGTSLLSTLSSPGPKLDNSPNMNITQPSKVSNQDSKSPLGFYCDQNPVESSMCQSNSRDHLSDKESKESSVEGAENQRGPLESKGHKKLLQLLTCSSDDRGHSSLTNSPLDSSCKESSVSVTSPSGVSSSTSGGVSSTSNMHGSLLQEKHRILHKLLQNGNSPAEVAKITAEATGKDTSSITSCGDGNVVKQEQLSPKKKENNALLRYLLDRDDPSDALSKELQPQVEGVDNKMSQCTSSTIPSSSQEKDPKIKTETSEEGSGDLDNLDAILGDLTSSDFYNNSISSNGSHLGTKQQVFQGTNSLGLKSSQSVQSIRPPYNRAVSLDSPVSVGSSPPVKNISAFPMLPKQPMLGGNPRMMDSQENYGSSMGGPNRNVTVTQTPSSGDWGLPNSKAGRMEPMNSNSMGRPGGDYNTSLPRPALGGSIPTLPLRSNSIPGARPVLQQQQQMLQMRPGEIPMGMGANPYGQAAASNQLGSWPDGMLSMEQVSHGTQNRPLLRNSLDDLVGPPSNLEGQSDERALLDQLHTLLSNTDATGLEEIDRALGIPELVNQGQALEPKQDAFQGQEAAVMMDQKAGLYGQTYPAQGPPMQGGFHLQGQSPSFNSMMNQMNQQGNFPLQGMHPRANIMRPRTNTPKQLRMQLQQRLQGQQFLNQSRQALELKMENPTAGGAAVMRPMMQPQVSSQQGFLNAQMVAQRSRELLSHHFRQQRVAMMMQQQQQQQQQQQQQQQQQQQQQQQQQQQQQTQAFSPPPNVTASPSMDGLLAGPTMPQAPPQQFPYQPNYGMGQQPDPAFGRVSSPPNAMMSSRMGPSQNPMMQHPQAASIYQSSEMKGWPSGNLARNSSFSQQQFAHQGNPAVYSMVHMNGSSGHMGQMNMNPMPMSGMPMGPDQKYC
Broadly, the IC50 is the concentration at which inhibition is half-maximal. Take `COc1ccc(NC(=O)CN(C)C(=O)C2(c3ccccc3)CCCC2)cc1`: the IC50 is 8.22 µM. In the case of `COc1cc([C@@H]2c3cc4c(cc3C(OC3OC5COC(C)OC5C(O)C3O)C3COC(=O)[C@@H]32)OCO4)cc(OC)c1O` (stereo partly drawn), the half-maximal inhibitory concentration (IC50) was 0.69 µM. Regarding `COc1ccc(Nc2ncnc3ccc(Br)cc23)c(OC)c1`, the IC50 entry is “inactive”.
